Assay results: article PMC10446182, “Reduced steroid activation of elephant shark GR and MR after inserting four amino acids from the DNA-binding domain of lamprey corticoid receptor-1” (PLOS ONE, 2023)
Where two headings read alike, the source gives them in different places.

Legend:
Assay in all cases: luciferase reporter transactivation in HEK293 cells
Type in all cases: cell-based
[1] = target: T1, FLAG-tagged wild-type elephant shark GR (Callorhinchus milii, UniProt A0A4W3H7L4)
T1 construct: full-length, N-terminal FLAG tag, transiently expressed in HEK293 cells
T1 sequence (A0A4W3H7L4 1-704): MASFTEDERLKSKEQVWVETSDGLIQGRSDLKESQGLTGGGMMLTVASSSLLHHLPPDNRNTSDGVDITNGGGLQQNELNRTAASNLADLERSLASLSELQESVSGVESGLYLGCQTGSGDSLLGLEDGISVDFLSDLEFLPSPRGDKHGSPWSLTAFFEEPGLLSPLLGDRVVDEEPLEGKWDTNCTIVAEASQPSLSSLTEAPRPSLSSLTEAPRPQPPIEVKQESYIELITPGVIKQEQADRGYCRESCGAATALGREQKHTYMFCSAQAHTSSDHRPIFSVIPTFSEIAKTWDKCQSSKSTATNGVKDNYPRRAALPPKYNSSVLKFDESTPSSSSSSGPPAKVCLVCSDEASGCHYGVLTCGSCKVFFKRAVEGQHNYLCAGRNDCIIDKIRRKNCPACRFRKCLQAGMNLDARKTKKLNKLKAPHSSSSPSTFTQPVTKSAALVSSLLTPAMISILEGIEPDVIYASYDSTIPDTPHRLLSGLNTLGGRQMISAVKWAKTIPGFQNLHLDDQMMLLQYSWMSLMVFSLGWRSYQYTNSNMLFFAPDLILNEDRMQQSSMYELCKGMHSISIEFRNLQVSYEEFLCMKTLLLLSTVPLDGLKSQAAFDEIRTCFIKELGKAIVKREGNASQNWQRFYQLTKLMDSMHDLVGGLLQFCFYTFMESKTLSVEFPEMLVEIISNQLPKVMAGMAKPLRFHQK
Source text: (§1) luciferase reporter transactivation in HEK293 cells on FLAG-tagged wild-type elephant shark GR

[2] = target: T2, FLAG-tagged wild-type elephant shark GR (Callorhinchus milii, UniProt A0A4W3H7L4); conditions: MMTV-luc promoter; agonist; 37 C
T2 construct: full-length, N-terminal FLAG tag, transiently expressed in HEK293 cells
Source text: as §1

[3] = target: T3, FLAG-tagged wild-type elephant shark MR (Callorhinchus milii, UniProt A0A4W3I5J5); conditions: MMTV-luc promoter; agonist; 37 C
T3 construct: gene nr3c2; full-length, N-terminal FLAG tag, transiently expressed in HEK293 cells
T3 sequence (A0A4W3I5J5 entry or part of it): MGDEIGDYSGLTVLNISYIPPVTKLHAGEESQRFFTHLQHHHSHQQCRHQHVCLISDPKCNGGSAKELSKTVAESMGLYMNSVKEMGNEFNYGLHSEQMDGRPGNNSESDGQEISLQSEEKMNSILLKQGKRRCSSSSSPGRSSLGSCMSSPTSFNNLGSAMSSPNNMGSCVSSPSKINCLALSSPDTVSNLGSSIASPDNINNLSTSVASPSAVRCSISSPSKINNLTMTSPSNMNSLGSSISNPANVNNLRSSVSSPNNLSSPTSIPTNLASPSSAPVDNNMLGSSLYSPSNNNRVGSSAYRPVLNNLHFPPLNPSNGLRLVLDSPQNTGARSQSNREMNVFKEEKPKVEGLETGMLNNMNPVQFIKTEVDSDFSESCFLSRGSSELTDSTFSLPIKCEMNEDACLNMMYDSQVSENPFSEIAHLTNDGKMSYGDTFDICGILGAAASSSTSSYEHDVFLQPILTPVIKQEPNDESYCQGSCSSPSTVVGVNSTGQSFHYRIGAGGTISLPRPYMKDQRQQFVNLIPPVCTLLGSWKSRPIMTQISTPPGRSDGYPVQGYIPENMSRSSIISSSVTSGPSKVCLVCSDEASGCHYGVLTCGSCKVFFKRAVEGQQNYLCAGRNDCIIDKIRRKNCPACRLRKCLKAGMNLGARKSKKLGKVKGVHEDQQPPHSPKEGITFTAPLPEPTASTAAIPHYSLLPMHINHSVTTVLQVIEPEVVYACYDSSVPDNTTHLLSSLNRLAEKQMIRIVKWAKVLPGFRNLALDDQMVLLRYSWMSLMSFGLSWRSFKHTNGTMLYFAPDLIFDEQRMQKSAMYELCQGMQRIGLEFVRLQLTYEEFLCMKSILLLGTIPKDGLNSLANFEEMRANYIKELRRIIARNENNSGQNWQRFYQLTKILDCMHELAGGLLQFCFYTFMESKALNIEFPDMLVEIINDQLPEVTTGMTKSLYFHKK
Source text: luciferase reporter transactivation in HEK293 cells on FLAG-tagged wild-type elephant shark MR

SMILES | EC50 [1] [nM] | EC50 [2] [nM] | EC50 [3] [nM]
C[C@]12CCC(=O)C=C1CC[C@@H]1[C@@H]2[C@@H](O)C[C@@]2(C)[C@H]1CC[C@]2(O)C(=O)CO [Cortisol] | 25.2 | 13.9 | 0.5
C[C@]12CCC(=O)C=C1CC[C@@H]1[C@@H]2CC[C@@]2(C)[C@H]1CC[C@]2(O)C(=O)CO [S, 11-deoxycortisol] | – | – | 0.13
C[C@]12CCC(=O)C=C1CC[C@@H]1[C@@H]2[C@@H](O)C[C@]2(C=O)[C@@H](C(=O)CO)CC[C@@H]12 [Aldo, aldosterone] | 14.1 | – | –
C[C@]12C[C@H](O)[C@H]3[C@@H](CCC4=CC(=O)CC[C@@]43C)[C@@H]1CC[C@@H]2C(=O)CO [CORT, Corticosterone] | 6 | – | –
C[C@]12CC[C@H]3[C@@H](CCC4=CC(=O)CC[C@@]43C)[C@@H]1CC[C@@H]2C(=O)CO [DOC, 11-deoxycorticosterone] | 13 | – | –
